Consider one compound from patent US6548450B1, “Tetrazolinone derivatives” (Nihon Bayer Agrochem, K.K., priority 1999, dated 2003).

The subject of this assay is paddy field weeds. Nature of the assay: Test for herbicidal effect against paddy field weeds. The class given is in vivo. The following applies: application rate of 0.5 kg/ha, applied to the surface of the water 5 days after rice transplantation, examined after 3 weeks, greenhouse pot. As to the method:
Test for Herbicidal Effect Against Paddy Field Weeds
Preparation of formulation of the active compound
Carrier: Acetone 5 parts by weight
Emulsifier: Benzyloxypolyglycolether 1 part by weight
A formulation of the active compound is obtained as an emulsion by mixing 1 part by weight of the active compound with the above-mentioned amount of carrier and emulsifier. A prescribed amount of said formulation is diluted with water to prepare a formulation for testing.
In a greenhouse 3 seedlings of paddy rice (cultivar: Nipponbare) of 2.5 leafstage (15 cm tall) were transplanted in a 500 cm^2 pot filled with paddy field soil. Then seeds of barnyard grass, smallflower, bulrush, monochoria and broad-leaved weeds (common false pimpernel, Indian toothcup, long stemmed water wort, Ammannia multiflora Roxb., Dopatrium junceum Hammilt etc.) were sown and water was poured on the soil to a depth of about 2-3 cm.
5 days after the rice transplantation a formulation of each active compound prepared according to the aforementioned preparation method was applied to the surface of the water. A water depth of 3 cm was maintained. The herbicidal effect was examined after 3 weeks from the treatment. The herbicidal effect was rated as 100% in the case of complete death and as 0% in the case of no herbicidal effect.

The structures appear in SMILES notation.

On to `CC(C)N(C(=O)n1nnn([C@@H](C)c2ccccc2)c1=O)c1ccccc1` [compound 3, 1-((S)-α-methylbenzyl)-4-(N-isopropyl-N-phenylcarbamoyl)-5(4H)-tetrazolinone], for which the “herbicidal effect against paddy field weeds” value was “sufficient herbicidal effect”.
